According to patent US20090305954A1, “HISTIDINE-CONTAINING DIASTEREOMERIC PEPTIDES AND USES THEREOF” (Yeda Research and Development Co. Ltd., priority 2005, published 2009):
Values after ≈ are worked out from the molar mass of the structure shown. Read-outs that look alike come from different tables or passages of the source. Square brackets hold non-standard residues; d marks the D form. Ends that are not written are not given here. Peptide text beside a SMILES is read from it.

Columns and labels:
[1] = test system: CL1 human prostate carcinoma cell line; assay: XTT proliferation (cytotoxicity) assay, CL1; type: cell-based
Method: (§1) The CL1 human prostate carcinoma (PC) cell line is an androgen-independent (AI) subclone of LNCaP cell line, which was generated by culturing androgen-dependent (AD) LNCaP cells in charcoal-stripped, […], as described (Patel et al. 2000). 22RV1 human PC cells are AI sub-clones of the AD prostatic adenocarcinoma CWR22 xenograft (Sramkoski et al. 1999). CL1 and 22RV1 (ATCC, USA) were grown in RPMI-1640 supplemented with 10% FCS (Biological Industries, Beit Haemek, Israel). PC3 and DU145 are androgen-insensitive (AI) (non-responsive), invasive human prostate cancer cell lines. NIH-3T3 mouse fibroblast cell lines (ATCC, USA) were grown in DMEM supplemented with 10% BS. Murine Lewis lung carcinoma (LLC) cell lines were also grown in DMEM medium supplemented with 10% fetal calf serum and antibiotics under the same conditions as above.
(§2) The anticancer activity of the diastereomers 1, 5 and 11-16, 36-39, 42 and 44 was examined against human CL1 prostate cancer, murine LLC (Lewis lung carcinoma), DU 145 and PC3 cell lines. The cell selectivity of the diastereomeric peptides was also studied by examining their effect on NIH-3T3 normal mouse fibroblasts cell line.
(§3) A 96-well plate (Falcon) was used for the XTT proliferation assay. Cancer cells were grown for 24 hours (day 1) in RPMI-1640 medium ([…] cells/100 μl for LLC, CL1, 22RVI, DU 145 and PC3, respectively) supplemented with 10% fetal calf serum and antibiotics, at 37° C., in humidified atmosphere at 5% CO2 and 95% air, resulting in growth medium pH of 7.4. NIH-3T3 fibroblast cells (1×10^4 cells/100 μl) were grown in DMEM medium supplemented with 10% bovine calf serum and antibiotics under the same conditions as described above for the cancerous cells. Wells in the last two rows served as blanks (medium only, for measuring the background color of the medium) and 100% survival controls (cells and medium only without treatment), respectively.
(§4) In day 2, the peptides were dissolved in sterile PBS to a concentration of 200 μM (or 500 μM). The medium in the assay wells was replaced with 100 μl serum free medium. For the assays at pH 6, the medium was initially concentrated (×5 or ×10) and then diluted with double distilled water and addition of sodium carbonate. Before reaching the correct dilution, the medium was adjusted to pH 6 and then more water was added to reach the final dilution. The cells were grown in physiological pH, and the acidic pH was used only during the 24 hours incubation with the peptides. A sign for the correct acidity was a light yellow color of the medium. In line A of the plate, 160 μl of serum free medium was added, if the initial peptide concentration was 500 μM.
(§5) Peptide solutions, 100 μl (or 40 μl) were added to each assay well in line A, such that the final concentration of the peptide was […] and the volume 200 μl. The medium in the wells was mixed with multichannel pipette 5 times and 100 μl of it were transferred to the next row of wells (line B), to give a peptide concentration of 50 μM. The double dilution of the peptides continued downstream the plate in the same manner. The plates were then incubated for 24 h.
(§6) In day 3, XTT reaction solution was prepared by adding to 100 μl aliquots of activation solution (sodium 3′-[1-(phenyl-aminocarbonyl)-3,4-tetrazolium]-bis(4-methoxy-6-nitro) benzene sulfonic acid hydrate and N-methyl dibenzopyrazine methyl sulfate; mixed in a proportion of 50:1) (protected from light and kept in −20° C.), the substrate. 50 μl of XTT reaction solution were added to each well and the plates were incubated for 2 hours (37° C. and 5% CO2+95% air. In cases the incubation was not enough for the creation of the color, it was extended for up to 24 hours). The optical density was read at wavelength of 450 nm in an ELISA plate reader. Cell viability was determined relative to the control and final results were recorded. The results were confirmed using replications in at least three independent experiments. […]

[2] = XTT proliferation (cytotoxicity) assay, normal fibroblasts; type: cell-based, mouse; settings: mouse, NIH-3T3 normal mouse fibroblasts, read-out: Lethal Concentration (LC50)
Method: as §1, §2, §3, §4, §5, §6

[3] = test system: DU145 human prostate cancer cell line; assay: XTT proliferation (cytotoxicity) assay, DU145; type: cell-based
Method: as §1, §2, §3, §4, §5, §6

[4] = test system: PC3 human prostate cancer cell line; assay: XTT proliferation (cytotoxicity) assay, PC3; type: cell-based; settings: PC3, pH 7.4, 24 h
Method: as §1, §2
A 96-well plate (Falcon) was used for the XTT proliferation assay. Cancer cells were grown for 24 hours (day 1) in RPMI-1640 medium (5×10^3, 7×10^3, 1×10^4 and 7×10^3 cells/100 μl for LLC, CL1, 22RVI, DU 145 and PC3, respectively) supplemented with 10% fetal calf serum and antibiotics, at 37° C., in humidified atmosphere at 5% CO2 and 95% air, resulting in growth medium pH of 7.4. […]
In day 3, XTT reaction solution was prepared by adding to 100 μl aliquots of activation solution (sodium 3′-[1-(phenyl-aminocarbonyl)-3,4-tetrazolium]-bis(4-methoxy-6-nitro) benzene sulfonic acid hydrate and N-methyl dibenzopyrazine methyl sulfate; mixed in a proportion of 50:1) (protected from light and kept in −20° C.), the substrate. […] The optical density was read at wavelength of 450 nm in an ELISA plate reader. Cell viability was determined relative to the control and final results were recorded. […]

22RV1 human PC cells = assay: XTT proliferation (cytotoxicity) assay, 22RV1; type: cell-based
Method: as §1, §3, §4, §5
In day 3, XTT reaction solution was prepared by adding to 100 μl aliquots of activation solution (sodium 3′-[1-(phenyl-aminocarbonyl)-3,4-tetrazolium]-bis(4-methoxy-6-nitro) benzene sulfonic acid hydrate and N-methyl dibenzopyrazine methyl sulfate; mixed in a proportion of 50:1) (protected from light and kept in −20° C.), the substrate. 50 μl of XTT reaction solution were added to each well and the plates were incubated for 2 hours (37° C. and 5% CO2+95% air. In cases the incubation was not enough for the creation of the color, it was extended for up to 24 hours). The optical density was read at wavelength of 450 nm in an ELISA plate reader. Cell viability was determined relative to the control and final results were recorded. The results were confirmed using replications in at least three independent experiments. The LC50 for each peptide was obtained from the curve of cell viability versus concentration of peptide and taken from the concentration at which cell viability was 50%. The data shown in Table 1 are for only one experiment, but representative of all replications.

[5] = test system: Murine Lewis lung carcinoma (LLC) cell line; assay: XTT proliferation (cytotoxicity) assay, LLC; type: cell-based
Method: as §1, §2, §3, §4, §5, §6

[6] = Acute toxicity test in mice (intravenous); type: in vivo; settings: for mortality: mice
Method: Acute toxicity of peptides 1, 13 and 16 was examined by intravenously injecting mice (n=3), each with one dose per day for 2 days of 0.5 ml solution containing peptides 1, 13 or 16 at 3, 9, 15, 20 and 30 mg/kg of body weight.
A week after injecting the peptides, blood samples were taken from the survived mice. […] Thus, the peptides 13 and 16 of the invention are not toxic even when administered at concentrations considerably higher than those necessary for their anticancer activity.

[7] = test system: NIH-3T3 normal mouse fibroblasts cell line; assay: XTT proliferation (cytotoxicity) assay, normal fibroblasts; type: cell-based; settings: NIH3T3, pH 7.4, 24 h
Method: as §1, §2, §3, §4, §5, §6

[8] = test system: AI CL1 human PC cells xenograft; assay: Inhibition of tumor growth in human prostate cancer xenografts, CL1; type: in vivo, nude male mice; settings: CL1 xenograft, 1 mg/kg intratumorally, 9 doses
Method: (§7) (i) Inhibition of tumor growth in human prostate cancer xenografts. Subcutaneouse (s.c.) implantation of human PC cells in mice was done as previously described in Gavish et al. (Gavish et al. 2002). Briefly, 0.1 ml AI CL1 or 22RV1 human PC cells (5×10^6 cells) in Matrigel were inoculated s.c. into the dorsal side of five to six week-old nude male mice weighing 20-25 g (Harlen Co., Israel). Two weeks after cell implantation, when the tumors diameter reached ≧5 mm (denoted as day 1), the diastereomer 13 and its all L-amino acid analog peptide (at 1 mg/kg, 0.1 mM), or vehicle (PBS, pH=7.4) were injected intratumorally (dosing volume of 2.5 ml/kg) three times a week for a total of 9 doses. Tumor size was measured by a caliper and recorded twice a week during a period of 28 days. Mice were weighed and tumor weight (mg) was estimated by using the formula of length×width×depth×0.52 in mm^3, assuming the specific gravity to be 1. At the end of the treatment, the mice were killed, and the tumors were removed, photographed, and weighed. The animal experimentation was conducted according to the rules of the Institutional Animal Care and Use Committee.

[9] = test system: 22RV1 human PC cells xenograft; assay: Inhibition of tumor growth in human prostate cancer xenografts, 22RV1; type: in vivo, nude male mice; settings: 22RV1 xenograft, 1 mg/kg intratumorally, 9 doses
Method: as §7
Serum PSA levels. Four weeks after the first treatment, blood was withdrawn from the 22RV1-inoculated mice in order to determine the level of prostate specific antigen (PSA). The blood samples were taken directly to heparin containing tubes, centrifuged, and the supernatants were stored at −20° C. The CanAg PSA EIA kit (CanAg Diagnostics) was used to determine the total PSA in the mice plasma (Gavish et al., 2002). Tumor weight and PSA levels, represented as the mean±SE, were calculated from the raw data and then subjected to Student's t test. A value of P<0.05 was considered as statistically significant.

[10] = Interaction with Matrigel matrix, analysed by RP-HPLC and mass spectroscopy; type: in vitro ADME; settings: mixed with Matrigel matrix for one hour
[11] = i.v., 3 mg/kg, one dose per day for 2 days
[12] = i.v., 9 mg/kg, one dose per day for 2 days
[13] = i.v., 15 mg/kg, one dose per day for 2 days
[14] = i.v., 20 mg/kg, one dose per day for 2 days

Row | Compound | Lethal Concentration (LC50) ([1]; CL1, pH 7.4, 24 h) [µg/mL] | CC50 at 24 h ([2]; NIH3T3, pH 6, 24 h) [µg/mL] | Lethal Concentration (LC50) (22RV1 human PC cells; 22RV1, pH 6, 24 h) [µg/mL] | Lethal Concentration (LC50) ([5]; pH 7.4, 24 h) [µg/mL] | mortality [6, 11] | mortality [6, 12] | mortality [6, 13] | mortality [6, 14] | other results
1 | CC(C)C[C@H](NC(=O)[C@H](CC(C)C)NC(=O)[C@@H](CCCCN)NC(=O)[C@H](CC(C)C)NC(=O)[C@H](CC(C)C)NC(=O)[C@H](CCCCN)NC(=O)[C@@H](CCCCN)NC(=O)[C@@H](CC(C)C)NC(=O)[C@H](CC(C)C)NC(=O)[C@@H](CCCCN)NC(=O)[C@H](CCCCN)NC(=O)[C@H](CC(C)C)NC(=O)[C@@H](CC(C)C)NC(=O)[C@H](CCCCN)NC(=O)[C@@H](N)CC(C)C)C(N)=O [Peptide 1, reference compound] (H-LK[dL]LK[dK]L[dL][dK]KLL[dK]LL-NH2) | 6.25 | 25 (≈ 13.9 µM) | 25 | 12.5 | No mortality | No mortality | 100% | 100% | Lethal Concentration (LC50) ([1]; CL1, pH 6, 24 h): 9.3 µg/mL; CC50 at 24 h ([2]; NIH3T3, pH 7.4, 24 h): 50 µg/mL (≈ 27.7 µM); Lethal Concentration (LC50) ([3]; DU145, pH 6, 24 h): 4.7 µg/mL; Lethal Concentration (LC50) ([3]; DU145, pH 7.4, 24 h): 4.7 µg/mL; Lethal Concentration (LC50) [4]: 6.2 µg/mL; Lethal Concentration (LC50) (22RV1 human PC cells; 22RV1, pH 7.4, 24 h): 12.5 µg/mL; Lethal Concentration (LC50) ([5]; pH 6, 24 h): 12.5 µg/mL; mortality ([6]; concentrations considerably higher than those necessary for anticancer activity): 100%
2 | CC(C)C[C@H](NC(=O)[C@H](CC(C)C)NC(=O)[C@@H](Cc1c[nH]cn1)NC(=O)[C@H](CC(C)C)NC(=O)[C@H](CC(C)C)NC(=O)[C@H](Cc1c[nH]cn1)NC(=O)[C@@H](Cc1c[nH]cn1)NC(=O)[C@@H](CC(C)C)NC(=O)[C@H](CC(C)C)NC(=O)[C@@H](CCCCN)NC(=O)[C@H](Cc1c[nH]cn1)NC(=O)[C@H](CC(C)C)NC(=O)[C@@H](CC(C)C)NC(=O)[C@H](Cc1c[nH]cn1)NC(=O)[C@@H](N)CC(C)C)C(N)=O [Peptide 16] (H-LH[dL]LH[dK]L[dL][dH]HLL[dH]LL-NH2) | 12.5 | 25 (≈ 13.5 µM) | 12.5 | 50 | No mortality | No mortality | no mortality | no mortality | active concentration lower than against NIH-3T3 ([1]; CL1 vs NIH-3T3 at the same pH): at least two-fold lower; Lethal Concentration (LC50) [7]: 100 µg/mL; mortality ([6]; i.v., 30 mg/kg, one dose per day for 2 days): No mortality; blood differential and biochemistry tests ([6]; survived mice, a week after injection): in the range of normal values
3 | LKLLHKLLKHLLKLL-NH2 [all L-amino acid analog peptide, reference compound] | – | – | – | – | – | – | – | – | tumor weight [8]: inactive; tumor weight [9]: inactive; activity preserved upon interaction with the Matrigel matrix [10]: fully inactivated
